Measured values taken from patent US20130338092A1, “COMPOUNDS AND METHODS FOR TARGETING LEUKEMIC STEM CELLS” (The Broad Institute, Inc., priority 2011, published 2013).

Assays:
[1] = tested on: human AML cell lines (U937, THP-1, NOMO-1, SKM-1, NB4, and OCI-AML3); test: AML cell line screen (CellTiter-Glo); assay type: cell-based
Description: Nomo-1, THP-1, SKM-1, NB4, and U937 cell lines were grown in RPMI (12-702F, BioWhittaker), 10% FBS (10082-147, Gibco), and 1% Pen-Strep (15140-122, Gibco) and OCI-AML3 was grown in α-MEM (36453, Stem Cell Technologies), 10% FBS (10082-147, Gibco), and 1% Pen-Strep (15140-122, Gibco). 3000 cells were plated in each well in 30 μl in white, 384 well plates (3570, Corning) and 16 hours later 100 nl of the appropriate compound was added to each well. 72 hours later the plates were cooled to room temperature and 30 μl of CellTiterGlo reagent (G7570, Promega) diluted 1:1 in PBS was added to each well and the plates were analyzed using an Envision (Perkin Elmer).
First, a traditional small molecule screen was performed on six human AML cell lines (U937, THP-1, NOMO-1, SKM-1, NB4, and OCI-AML3), two of which (NOMO-1, THP-1) contain the same oncogene (MLL-AF9) used to generate the primary leukemia cells utilized in our coculture system. The cell lines were grown in isolation under standard conditions, treated with the 160 compounds at 8-point dose, and three days later the viability of each well was quantified using CellTiter-Glo reagent. The IC50s from these AML cell line screens were then compared to the IC50s from the coculture screens. […] As discussed, the existence of such differentially-active compounds is consistent with our hypothesis that coculturing can expand the pool of therapeutically promising compounds identified in high throughput format.

[2] = tested on: normal primary human CD34+ cells; test: Alamar Blue assay for human progenitor cell toxicity; conditions: for IC50: Homo sapiens, 168 h, read-out: Normal Progenitor* IC50
Description: Normal G-CSF mobilized CD34+ cells (AllCells, LLC, Emeryville, Calif.), normal BM CD34 cells (MSKCC, New York, N.Y.) and cord blood CD34+ cells (New York Blood Center, New York) were previously frozen and thawed out before the proliferation assay was set up in 384-well plates. Briefly, 50 μl of IMDM medium containing 20% FBS (Gemini Bio-Product, West Sacramento, Calif.), 20 ng/ml of recombinant human Kit Ligand (rhKL), 20 ng/ml of rh-Interleukin-3 (rhIL-3), 20 ng/ml of rhG-CSF, 6 units/ml of rhEPO, 10-42-mercaptoethanol, 2 mM glutamine, 50 u/ml penicillin, 50 μg/ml streptomycin, 1,000 viable CD34+ cells in the presence of various doses of Broad compounds (drug-treated group) or 0.1% DMSO (control group) were incubated at 37° C. After 6 days, 5 μl of AlamaBlue (AbD Serotec, Raleigh, N.C.) was added to each well and further incubated overnight. The fluorescence signal was then measured with GeminiXS microplate reader (Molecular Devices, Sunnyvale, Calif.). Effect of small molecules to proliferation of CD34+ cells was reported as Relative fluorescent intensity (Relative Fluorescent Intensity=Fluorescent Intensity (drug-treated)/Fluorescent Intensity (Control).
Finally, experiments were performed to examine whether BRD7116 or lovastatic acid were likely to cause myelosuppression, a type of deleterious toxicity in patients resulting from harm to normal human hematopoietic progenitor cells. This consideration is especially important as conventional therapies currently used in the clinic have myelosuppressive toxicities that are dose-limiting. To this end, a hematopoietic progenitor assay was employed to compare the effects of BRD7116 and lovastatic acid to effects given by such known myelosuppressive compounds. In this assay, normal primary human CD34^+ cord blood cells were plated with cytokines in suspension, treated with compound for 7 days, and then examined for viability relative to DMSO treated controls.

[3] = tested on: CD34+ cells from primary human leukemia samples; test: Human CD34+ CAFC assay, leukemia samples; assay type: cell-based; conditions: 1.25 μM to 10 μM, 18 hours exposure, read at 5 weeks (2 weeks FLT3-ITD)
Description: Samples were centrifuged over Ficoll-Paque PLUS (GE Heathcare) step gradient (2000×g for 30 min in 50 ml tubes) to obtain mononuclear cells and then CD34^+ cells were selected with immunomagnetic beads (MACS Cell Separation, Miltenyi Biotec, Auburn, Calif.), except in one case, NPM1 mutation, which was CD34^− by flow cytometry and mononuclear cells were used. 50,000 cells were placed into 12.5 cm^2 flasks (Becton Dickinson Labware, Franklin Lakes, N.J.) in co-culture with the MS-5 mouse bone marrow-derived stromal cell line (kindly provided by Dr. Itoh, Dept. of Biology, Niigata University, Japan) and DMSO control and the number of final cobblestones was later read. The number of cells needed to form one cobblestone was then placed in triplicate for each sample with each drug at serial drug dilutions from 10 μM to 0.63 μM as well as with DMSO 0.5% for control purposes and incubated overnight with Iscove's modified Dulbecco's medium (IMDM, in house media preparation laboratory)+20% fetal calf serum (FCS, Atlanta Biologicals, Lawrenceville, Ga.) with glutamine (2 mM/ml, in house media preparation laboratory), monothioglycerol (MTG, 10 nM/ml, Sigma Cell Culture, St. Louis Mo.), c-Kit ligand (20 ng/ml, Amgen, Thousand Oaks, Calif.), Flt ligand (20 ng/ml, Imclone, Bridgewater, N.J.), TPO (20 ng/ml, Amgen) and IL-3 (20 ng/ml, Amgen). Cells were then washed to remove the drugs and placed into 96 well cell culture plates (Becton Dickinson) with α-MEM (in house media preparation laboratory)+12.5% FCS+12.5% horse serum (Gemini Bio-products, West Sacramento, Calif.) with glutamine, MTG, hydrocortisone (1 nM/ml, Sigma) and IL-3 in co-culture with MS-5 stromal cells. […] The same procedure was followed with normal CD34+ cells obtained from cord blood.
The cells were treated with compound or DMSO carrier control at four doses (ranging from 1.25 μM to 10 μM) in triplicate for 18 hours, washed thoroughly, then plated onto human stromal MS-5 monolayers (Itoh, K., Tezuka, H., Sakoda, H., Konno, M., Nagata, K., Uchiyama, T., Uchino, H., and Mori, K. J. (1989). Exp Hematol 17, 145-153.) and maintained in coculture with one subsequent half media change. After 5 weeks (2 weeks for the FLT3-ITD sample (Moore, M. A., Dorn, D. C., Schuring a, J. J., Chung, K. Y., and Morrone, G. (2007). Exp Hematol 35, 105-116.)), cobblestone formation was determined, and dose-response curves against the 7 cell types were generated for each compound.

dsRed+ LSCs = test: Syngeneic transplantation of compound-treated triple cocultures, leukemia onset / survival; assay type: in vivo, mice; conditions: cocultures treated 48 hours ex vivo, then transplanted; vs DMSO
Description: Heterotypic cocultures containing dsRed+ LSCs, CD45.1+ HSPCs, and GFP+ MSCs were exposed to compounds for 48 hours, then transplanted en masse post trypsinization with untreated wild-type helper splenocytes (CD45.1+CD45.2+) into lethally irradiated, wildtype recipient animals (CD45.2+). Latency of leukemia onset was compared for mice receiving cocultures treated with compound compared to DMSO control treated cocultures. The engraftment of the normal HSPCs treated and injected along with the leukemia cells was quantified by FACs analysis of the bone marrow of mice alive at the 16 week endpoint across treatments.
As in vivo readouts may better reflect hematopoietic stem cell function compared to in vitro readouts (Purton, L. E., and Scadden, D. T. (2007). Cell Stem Cell 1, 263-270.; Bock, T. A. (1997). Stem Cells 15 Suppl 1, 185-195.), our results were confirmed using murine transplantation studies. […] Compounds that increase disease latency relative to DMSO control are considered active. […] Bone marrow repopulating ability is a functional measure of normal HSPCs, assessed by quantifying long-term engraftment and differentiation patterns in recipient mice (Bock, T. A. (1997). Stem Cells 15 Suppl 1, 185-195.; Nguyen, L. V., Vanner, R., Dirks, P., and Eaves, C. J. (2012). Nat Rev Cancer 12, 133-143.). […]

Structure (SMILES)	inhibition of AML cell lines at maximal doses ([1]; of the positive control)	inhibition of AML cell lines ([1]; relative to DMSO control, concentrations greater than 30 μM)	toxicity to hematopoietic progenitor cells [2]	IC50 [2]	leukemia cobblestone inhibition (human CAFC) [3]	latency of leukemia onset / survival of recipient mice (dsRed+ LSCs)	activity against AML cell lines [1]	IC50 ([1]; Homo sapiens, read-out: IC50 across the AML cell lines)
CC1(C)C(C(=O)Nc2ccc(S(=O)(=O)c3ccc(NC(=O)C4C(C)(C)C4(C)C)cc3)cc2)C1(C)C [BRD7116]	50%	roughly 50%	minimal toxicity	10 µM	leukemia cobblestone inhibition was observed across all six primary leukemia samples	mild, but statistically significant prolonged latency of leukemia onset	–	–
CCC(C)C(=O)OC1CC(C)C=C2C=CC(C)C(CCC(O)CC(O)CC(=O)O)C21 (stereo not drawn) [Lovastatic acid]	–	–	minimal toxicity	10 µM	leukemia cobblestone inhibition was observed across all six primary leukemia samples	survived substantially longer than the DMSO control group	only weak activity	> 10 µM
